Consider 17 compounds from PMC9189845, “Structure–Activity Relationships of 8-Hydroxyquinoline-Derived Mannich Bases with Tertiary Amines Targeting Multidrug-Resistant Cancer” (Journal of Medicinal Chemistry, 2022).

Counter-ions that a name gives are not always drawn. Like-named read-outs stand apart in the source and are kept apart here. A value given as a limit tells only on which side of the number the result lay.

The subject of one assay is MES-SA cells. Put plainly: PrestoBlue viability assay, MES-SA cells. The note with it: Homo sapiens, MES-SA.
Another assay concerns MES-SA/Dx5 cells. Put plainly: PrestoBlue viability assay, MES-SA/Dx5 cells (MDR, P-gp positive). The note with it: for IC50: Homo sapiens; for SR: selectivity ratio MES-SA vs MES-SA/Dx5, without TQ; for SR (MES-SA_TQ / Dx5_TQ) (values in parentheses): presence of 1 μM TQ; for SR_TQ: selectivity ratio MES-SA vs MES-SA/Dx5, with TQ.
Where [1] appears, read: 72 h, read-out: IC50 / μM MES-SA, absence of TQ, 72 h incubation.
Setting [2] is: MES-SA/Dx5, 72 h, read-out: IC50 / μM MES-SA/Dx5, absence of TQ, 72 h incubation.
[3] abbreviates: read-out: pIC50 value MES-SA, MES-SA cells, without TQ (converted).
[4] abbreviates: MES-SA/Dx5, read-out: pIC50 value MES-SA/Dx5, MES-SA/Dx5 cells, without TQ (converted).
The mark [5] stands for this setting: read-out: IC50 / μM MES-SA (values in parentheses), presence of 1 μM P-gp inhibitor tariquidar (TQ).
Setting [6] is: read-out: pIC50 value MES-SA+TQ, MES-SA cells, with TQ (converted).
Setting [7] is: MES-SA/Dx5, read-out: IC50 / μM MES-SA/Dx5 (values in parentheses), presence of 1 μM P-gp inhibitor tariquidar (TQ).
Setting [8] is: fraction of IC50 in P-gp negative vs positive cells.

With `O=Cc1ccc(O)c(CN2CCCCC2)c1` [Compound 61], the IC50 in the assay with MES-SA cells (setting [1]) and with MES-SA/Dx5 cells (setting [2]) was more than 100 µM throughout.
`CC(=O)c1ccc(O)c(CN2CCCCC2)c1` [Compound 62]: the IC50 in the assay with MES-SA cells (setting [1]) and with MES-SA/Dx5 cells (setting [2]) was more than 100 µM in each case.
As for `COc1ccc(C(C)=O)cc1CN1CCCCC1` [Compound 63], the IC50 in the assay with MES-SA cells (setting [1]) and in the assay with MES-SA/Dx5 cells (setting [2]) was more than 100 µM throughout.
Regarding `Oc1ccc2ccncc2c1CN1CCCC(C(F)(F)F)C1` (stereo not shown) [Compound 64], the IC50 in the assay with MES-SA cells (setting [1]) and in the assay on MES-SA/Dx5 cells (setting [2]) was more than 100 µM in each case.
On to `Oc1ccccc1CN1CCOCC1` [Compound 65], for which the IC50 in the assay with MES-SA cells (setting [1]) and in the assay with MES-SA/Dx5 cells (setting [2]) was more than 100 µM throughout.
Regarding `Oc1ccccc1C(=S)N1CCOCC1` [Compound 66], the IC50 in the assay on MES-SA cells (setting [1]) and in the assay on MES-SA/Dx5 cells (setting [2]) was more than 100 µM in each case.
For `O=C(c1ccccc1O)N1CCOCC1` [Compound 67], the IC50 in the assay with MES-SA cells (setting [1]) and in the assay on MES-SA/Dx5 cells (setting [2]) was more than 100 µM in each case.
For `Cc1ccc(O)c(C(=O)N2CCOCC2)c1` [Compound 68], the IC50 in the assay on MES-SA cells (setting [1]) was more than 100 µM; in the assay with MES-SA cells (setting [3]) it was 380 µM; in the assay with MES-SA/Dx5 cells (setting [2]), more than 100 µM.
Take `Oc1ccc2ccccc2c1CN1CCOCC1` [Compound 69]: the IC50 in the assay with MES-SA cells (setting [1]) and in the assay on MES-SA/Dx5 cells (setting [2]) was more than 100 µM each time.
In the case of `COc1ccc(O)c(CN2CCN(C)CC2)c1` [Compound 73], the IC50 with MES-SA cells (setting [1]) and in the assay on MES-SA/Dx5 cells (setting [2]) was more than 100 µM in each case.
Turning to `CCN1CCN(Cc2cc(OC)ccc2O)CC1` [Compound 74], the IC50 in the assay on MES-SA cells (setting [1]) and with MES-SA/Dx5 cells (setting [2]) was more than 100 µM each time.
As for `CN1CCN(Cc2c(O)ccc3ccccc23)CC1` [Compound 75], the IC50 in the assay with MES-SA cells (setting [1]) and in the assay on MES-SA/Dx5 cells (setting [2]) was more than 100 µM in each case.
For the compound `O=C1CCCN1Cc1cc(Cl)c2cccnc2c1O` [Compound 76], the IC50 is 10.2 ± 0.25 µM with MES-SA cells (setting [1]), 10.2 µM in the assay with MES-SA cells (setting [3]), 12.2 ± 0.55 µM with MES-SA/Dx5 cells (setting [2]) and 12 µM in the assay with MES-SA/Dx5 cells (setting [4]). In addition, the SR in the assay on MES-SA/Dx5 cells came out at 0.84.
For `CC1CCCCN1Cc1cc(Cl)c2cccnc2c1O` (stereo not shown) [Compound 77], the IC50 in the assay with MES-SA cells (setting [1]) is 2.57 ± 0.1 µM; in the assay on MES-SA cells (setting [5]), 2.35 µM; with MES-SA cells (setting [6]), 2.34 µM; with MES-SA cells (setting [3]) it was 2.57 µM; in the assay with MES-SA/Dx5 cells (setting [2]), 0.34 ± 0.03 µM; in the assay on MES-SA/Dx5 cells (setting [7]), 1.55 µM. In addition, the IC50 with MES-SA/Dx5 cells (setting [4]) is 0.339 µM. Moreover, the “SR (MES-SA_TQ / Dx5_TQ) (values in parentheses)” value (from here on “SR (MES-SA_TQ / Dx5_TQ)”) in the assay on MES-SA/Dx5 cells (setting [8]) is on record as 1.51. The SR_TQ in the assay on MES-SA/Dx5 cells was 1.51. Besides, the SR in the assay with MES-SA/Dx5 cells came to 7.57.
With `CCOC(=O)C1CCCN(Cc2cc(Cl)c3cccnc3c2O)C1` (stereo not shown) [Compound 78], the IC50 in the assay with MES-SA cells (setting [1]) was 2.52 ± 0.22 µM; in the assay on MES-SA cells (setting [5]), 2.14 µM; in the assay with MES-SA/Dx5 cells (setting [2]), 0.43 ± 0.01 µM; in the assay with MES-SA/Dx5 cells (setting [7]) it was 1.18 µM. The “SR (MES-SA / MES-SA/Dx5)” value in the assay with MES-SA/Dx5 cells (fraction of IC50 in P-gp negative vs positive cells, absence of TQ) is given as 5.91. In addition, the “SR (MES-SA_TQ / Dx5_TQ)” value with MES-SA/Dx5 cells (setting [8]) is on record as 1.81.
With `Oc1c(CN2CCc3ccccc3C2)cc(Cl)c2cccnc12` [Compound 80], the IC50 is 1.96 ± 0.22 µM in the assay with MES-SA cells (setting [1]); 1.81 µM with MES-SA cells (setting [5]); 1.78 µM in the assay with MES-SA cells (setting [6]); 1.95 µM in the assay on MES-SA cells (setting [3]); 0.27 ± 0.06 µM with MES-SA/Dx5 cells (setting [2]); 1.05 µM with MES-SA/Dx5 cells (setting [7]). Moreover, the IC50 in the assay on MES-SA/Dx5 cells (setting [4]) was 0.263 µM. Besides, the “SR (MES-SA_TQ / Dx5_TQ)” value in the assay on MES-SA/Dx5 cells (setting [8]) turned out to be 1.72. Also, the SR_TQ in the assay on MES-SA/Dx5 cells turned out to be 1.72. Moreover, in the assay with MES-SA/Dx5 cells, the SR was 7.21.
`Oc1cc2c(cc1O)CN(Cc1ccc3cccnc3c1O)CC2` [Compound 82, 2-((8-Hydroxy-quinolin-7-yl)methyl)-1,2,3,4-tetrahydroisoquinoline-6,7-diol Hydrochloride]: the IC50 in the assay on MES-SA cells (setting [1]) was 3.42 ± 0.28 µM; in the assay with MES-SA cells (setting [3]), 3.39 µM; with MES-SA/Dx5 cells (setting [2]) it was 3.61 ± 0.51 µM; with MES-SA/Dx5 cells (setting [4]) it was 3.55 µM. Besides, the SR in the assay with MES-SA/Dx5 cells is recorded as 0.95.
